Data taken from US20240408112A1, “METHOD FOR PREVENTING OR TREATING PULMONARY ARTERIAL HYPERTENSION BY USING 7-DEHYDROCHOLESTEROLS OR SALTS, OXIDES, METABOLITES, OR DERIVATIVES THEREOF” (EXCELSIOR PHARMATECH LABS., priority 2023, published 2024).

Legend:
[1] = test system: human pulmonary artery smooth muscle cells (hPASMC); assay: BrdU cell proliferation assay, 10% FBS, hPASMC; format: cell-based; conditions: Homo sapiens, read-out: EC50 (concentration for 50% of maximal effect)
Experimental: (§1) BrdU (5-bromo-2-deoxyuridine) cell proliferation assay (BrdU assay)
(§2) A 48-well plate was used, and 1.5×10^4 cells were implanted in each well. After 24 hours, the medium was changed to serum-free culture medium and synchronized for 24 hours. A 2-fold concentration of the compound in serum-free culture medium is prepared and the cells were pretreated for 1 hour. Then, the same volume of culture medium containing 20% fetal bovine serum (FBS) was added to dilute the compound. The final concentration was 10% FBS culture medium and 1 times the concentration of the compound. In the experimental group that added TGF-β, the same volume of TGF-β culture medium containing 10 ng/mL was added, with a final concentration of 5 ng/mL TGF-β and 1 times the concentration of the compound, and in the experimental group added with TGF-β, the entire process was conducted in culture medium containing 0.1% serum. Then, BrdU reagent was added about 6 hours later, and the cells were collected the next day for enzyme-linked immunosorbent assay (ELISA) analysis, the compound treatment time was about 24 hours, and the BrdU treatment time was about 18 hours.
(§3) Five compounds to be tested were screened by cell survival assay (MTT assay) and BrdU (5-bromo-2-deoxyuridine) cell proliferation assay, and the information of these compounds was listed in Table 1 below. Tables 2 and 3 respectively listed the growth inhibitions of on human pulmonary artery endothelial cells (hPAEC), human pulmonary artery smooth muscle cells (hPASMC), normal rat pulmonary artery smooth muscle cells (rPASMC, as the control group, represented by “CON”), and rat pulmonary artery smooth muscle cells (represented by “MCT”), by the five compounds to be tested under the conditions of 10% FBS, 0.1% FBS and 100 pM TGF-β.

[2] = test system: monocrotaline induced pulmonary hypertension rat; assay: Monocrotaline-induced pulmonary arterial hypertension rat model, Example 2 (7-DHC, 042); format: in vivo; conditions: 50 mg/kg IP
Excerpt: (§4) Pulmonary arterial hypertension animal experimental model
(§5) The present disclosure utilizes injection of monocrotaline to induce symptoms of pulmonary arterial hypertension in rats to establish a pulmonary arterial hypertension animal experimental model suitable for screening test drugs.
(§6) The diagnostic method of clinical pulmonary arterial hypertension standards is right heart catheterization, which is defined as mean pulmonary arterial pressure (mPAP) greater than or equal to 20 mmHg. The diagnostic criteria for pulmonary arterial hypertension, in addition to an increase in mean pulmonary arterial pressure, need to be combined with pulmonary vascular resistance (PVR) greater than 3 Wood unit. The right ventricle pressure (RVP) and systemic mean blood pressure (mbp) in rats with pulmonary arterial hypertension were measured by Millar Model PCU200 pressure system, and the heart rate (HR) was also monitored at the same time. After measuring the hemodynamic data, the arterial blood was extracted from the carotid artery of the pulmonary arterial hypertension rat, and the Abbott blood oximeter (i-STAT) combined with Abbott's special chip cartridge (i-STAT Cartridge G3+) was used to measure arterial gas analysis data such as pH, PaO2, PaCO2, HCO3 and base excess (BE) value in quantitative whole blood samples. The normal pH value is between 7.35 and 7.45, and the pH value indicates whether the experimental animal has the condition of acidemia, alkalemia, acidosis or alkalosis. The normal value of PaO2 is between 80 and 100 mmHg, which reflects the effectiveness of gas exchange (ventilation/perfusion). The normal value of PaCO2 is between 35 and 45 (such as 38 and 42) mmHg, which can evaluate the effectiveness of alveolar ventilation. The acid produced by food, tissue decomposition, inflammation and hypoxia rely on the lungs to excrete volatile acid CO2 (short-term) and the bicarbonate (HCO3^−) produced by the kidneys (long-term) to neutralize non-volatile acids, while the normal value of bicarbonate hydrogen radical (HCO3^−) is between 22 and 26 meq/L. BE is the base excess value, its normal value ranges from −2 to +2, the negative value represents the degree of alkali ion deficiency in the blood, a negative BE value (−) that is too high indicates metabolic acidosis, and a positive value (+) that is too high is metabolic alkalosis. At the end of the experiment, the rats were sacrificed and their hearts were removed and the left and right ventricles were separated and weighed (RV)/(S)+(LV).
Monocrotaline (MCT) was utilized to induce pulmonary hypertension rat animal model, the TGF-β receptor inhibitor 7-DHC (039) and compound No. 042 were tested via intraperitoneal (IP) administration, and the physiological parameters of the animals were collected, wherein includes measuring right ventricle pressure, systemic arterial pressure, heartbeat and right ventricle hypertrophy, as well as observing and analyzing the pulmonary artery thickening and blood oxygenation levels through pathological sections of lung tissue. Specifically, 7-DHC (039) was divided into two groups with a dosage of 10 mg/kg or 20 mg/kg, the dosage of group 042 was 50 mg/kg, each dosage group has 3 rats (n=3), while the control group (CON) and the pulmonary arterial hypertension rat group (MCT) had 6 rats (n=6) respectively.

[3] = test system: TGF-β-stimulated PAI-1 promoter activity; assay: TGF-β stimulated Pai-1 luciferase assay in MLECs-clone32 cells; format: cell-based; conditions: TGF-β 50 pM, 4 hours, read-out: IC50 value of compound inhibiting TGF-β-stimulated Pai-1 luciferase activity (%)
Excerpt: TGF-β Stimulated Pai-1 Luciferase Assay
MLECs-clone32 cell line was used to measure the impact of different compounds on the downstream gene, plasminogenactivator inhibitor 1 (PAI-1) performance stimulated by TGF-β. MLECs-clone32 is an expression construct that is stably transfected for the Mv1Lu cell line, and the expression construct PAI-1 Luciferase contains a truncated (PAI-1) promoter fused to the firefly luciferase reporter gene^11,12. The activity stimulated by the truncated PAI-I promoter was quantified by using a luciferase assay. The luciferase activity stimulated by TGF-β in cells without compound treatment was set as 100%, and the effects of each compound on TGF-β-stimulated PAI-I promoter activity were compared. The steps for measuring Pai-1 luciferase activity include using a 96-well plate (DMEM medium containing 10% FBS), seeding each well with 1.5×10^5 cells, and culturing in an incubator overnight. After discarding the medium the next day, cells in DMEM medium with or without the addition of test compounds were treated with recombinant TGF-β (50 pM) and allowed to react in a 37° C. incubator for 4 hours. The cell culture medium was aspirated, washed with PBS, and the activity of Pai-1 luciferase was evaluated by luciferase assay.

[4] = test system: human pulmonary artery endothelial cells (hPAEC); assay: BrdU cell proliferation assay, 10% FBS, hPAEC; format: cell-based; conditions: Homo sapiens, Endothelial cell, read-out: EC50 (concentration for 50% of maximal effect)
Experimental: as §1, §2, §3

[5] = test system: PAH rat pulmonary artery smooth muscle cells (rPASMC MCT); assay: BrdU cell proliferation assay, 0.1% FBS, 100 pM TGF-β, rPASMC MCT; format: cell-based; conditions: Rattus norvegicus
Experimental: as §1, §2, §3

[6] = test system: normal rat pulmonary artery smooth muscle cells (rPASMC CON); assay: BrdU cell proliferation assay, 0.1% FBS, 100 pM TGF-β, rPASMC CON; format: cell-based; conditions: Rattus norvegicus
Experimental: as §1
as §2, with “with a final concentration of 5 ng/mL TGF-β and 1 times the concentration” left out
Five compounds to be tested were screened by cell survival assay (MTT assay) and BrdU (5-bromo-2-deoxyuridine) cell proliferation assay, and the information of these compounds was listed in Table 1 below.

[7] = test system: human pulmonary artery endothelial cells (hPAEC); assay: BrdU cell proliferation assay, 0.1% FBS, 100 pM TGF-β, hPAEC; format: cell-based; conditions: Homo sapiens, Endothelial cell
Experimental: as §1, §2, §3

[8] = test system: human pulmonary artery smooth muscle cells (hPASMC); assay: BrdU cell proliferation assay, 0.1% FBS, 100 pM TGF-β, hPASMC; format: cell-based; conditions: Homo sapiens
Experimental: as §1, §2, §3

[9] = test system: PAH rat pulmonary artery smooth muscle cells (rPASMC MCT); assay: BrdU cell proliferation assay, 10% FBS, rPASMC MCT; format: cell-based; conditions: Rattus norvegicus, read-out: EC50 (concentration for 50% of maximal effect)
Experimental: as §1, §2, §3

[10] = test system: normal rat pulmonary artery smooth muscle cells (rPASMC CON); assay: BrdU cell proliferation assay, 10% FBS, rPASMC CON; format: cell-based; conditions: Rattus norvegicus, read-out: EC50 (concentration for 50% of maximal effect)
Experimental: as §1, §2, §3

[11] = test system: monocrotaline induced pulmonary arterial hypertension rat; assay: Monocrotaline-induced pulmonary arterial hypertension rat model, Example 3 (7-DHC vs macitentan); format: in vivo; conditions: 30 mg/kg oral
Excerpt: as §4, §5, §6
Monocrotaline was utilized to induce pulmonary arterial hypertension rat animal model, intraperitoneal injection (IP) TGF-β receptor inhibitor 7-DHC (039) and oral administration of macitentan (soluble in methylcellulose), 7-DHC (039) was divided into two groups according to the dosage: 10 mg/kg or 20 mg/kg, and the dosage of macitentan group was 30 mg/kg.

[12] = MCT (PAH rPASMC), 100 pM TGF-β, 0.1% FBS, read-out: EC50
[13] = CON (normal rPASMC), 100 pM TGF-β, 0.1% FBS, read-out: EC50
[14] = hPAEC, 100 pM TGF-β, 0.1% FBS, read-out: EC50
[15] = hPASMC, 100 pM TGF-β, 0.1% FBS, read-out: EC50

| Structure (SMILES) | EC50 [1] [µM] | IC50 [3] [µM] | EC50 [4] [µM] | EC50 [5, 12] [µM] | EC50 [6, 13] [µM] | EC50 [7, 14] [µM] | EC50 [8, 15] [µM] | EC50 [9] [µM] | EC50 [10] [µM] | further results |
| --- | --- | --- | --- | --- | --- | --- | --- | --- | --- | --- |
| O=c1cc(-c2ccccc2)oc2cc(O)c(O)c(O)c12 [Code 042, Baicalein] | 5 | 14.8 | 20 | 9 | 52 | 15 | 4 |  |  | Right ventricle hypertrophy (RV/S+LV), in words ([2]; compared with MCT rats): slightly lower; Weight and activity of the rats ([2]; second week of administration, sacrificed early on day 21): significantly decreased |
| O=c1c(O)c(-c2ccc(O)c(O)c2)oc2cc(O)ccc12 [Code 050, Fisetin] |  | 44.1 |  | 79 | 106 | 40 | 35 |  |  | EC50 ([1]; hPASMC, 10% FBS): 27 µM; EC50 ([9]; MCT (PAH rPASMC), 10% FBS): 38 µM; EC50 ([4]; hPAEC, 10% FBS): 22 µM; EC50 ([10]; CON (normal rPASMC), 10% FBS): 59 µM |
| CCCNS(=O)(=O)Nc1ncnc(OCCOc2ncc(Br)cn2)c1-c1ccc(Br)cc1 [Code 053, Macitentan] | 100 | 82.9 | 175 | 87 | 96 | 40 | 59 | 114 | 142 | Blood vessel thickening, in words [11]: reduction in blood vessel thickening was also observed; Survival rate compared with the 7-DHC (039) group, in words [11]: significantly worse; Animal survival status ([11]; 23rd day after monocrotaline induction): died; Body weight and activity of the rats ([11]; second week of administration): not greatly affected |
| O=C(O)[C@H](O)Cc1ccc(O)c(O)c1 [Code 056, Danshensu] | 124 |  | 272 |  |  |  |  | 25 | 35 | EC50 [5]: 36 µM; EC50 [6]: 50 µM; EC50 [7]: 155 µM; EC50 [8]: 100 µM |
| CC(C)CCC[C@@H](C)[C@H]1CC[C@H]2C34C=CC5(C[C@@H](OC(=O)CBr)CC[C@]5(C)[C@H]3CC[C@]12C)n1c(=O)n(C)c(=O)n14 (stereo partly shown) [Code 203, MeTC7] |  | 17.5 |  |  |  |  |  |  |  |  |
